# Assays:
# cleaved caspase 3 = assay: Western blot of cleaved caspase 3 after TGF-β2 stimulation in iFECD; assay type: cell-based, human; conditions: 3 pmol mTOR siRNA, then TGF-β2 10 ng/ml 24 h, FIG. 8
# Method: (§1) The medium was removed from a culture dish in which iFECDs were being cultured, and the cells were supplemented with 1×PBS (−) that was preheated to 37° C., and were washed. This was repeated twice. The cells were supplemented again with 1×PBS (−) and incubated for 3 minutes at 37° C. (5% CO2). After removing the PBS (−), the cells were supplemented with 0.05% Trypsin-EDTA (Nacalai Tesque, 32778-34) and incubated for 5 minutes at 37° C. (5% CO2). The cells were then suspended in a medium, and collected by centrifugation at 1500 rpm for 3 minutes. DMEM (Nacalai Tesque, 08456-36)+10% FBS (Biowest, S1820-500)+1% P/S (Nacalai Tesque, 26252-94) was used as the medium.
# iFECDs were seeded on a 12-well plate at a ratio of 1×10^5 cells per well and cultured for 24 hours at 37° C. (5% CO2) (DMEM+10% FBS+1% P/S was used as the medium). After 24 hours, the medium was removed. Rapamycin was added to culture the cells for 24 hours. (DMEM+2% FBS+1% P/S was used as the medium). After 24 hours, the medium was removed. A medium containing 10 ng/ml of Recombinant Human TGF-β2 (Wako, 200-19911) and rapamycin was added to culture the cells for 24 hours. […]
# (§2) 8 μg of the extracted protein was separated by SDS-PAGE and transferred onto a nitrocellulose membrane. […] The detected band strength was analyzed with a lumino image analyzer LAS-4000 mini (Fuji Film) and ImageQuant™ software (GE Healthcare). […]
# S6K = assay: Western blot of S6K phosphorylation after TGF-β2 stimulation in iFECD; assay type: cell-based, human; conditions: 3 pmol mTOR siRNA, FIG. 6
# Method: as §1
# iFECDs were seeded on a 12-well plate at a ratio of 7×10^4 cells per well and cultured for 24 hours at 37° C. (5% CO2) (DMEM+10% FBS+1% P/S was used as the medium). After 24 hours, the medium was removed. Rapamycin was added to culture the cells for 24 hours. (DMEM+2% FBS+1% P/S was used as the medium). After 24 hours, the medium was removed. A medium containing 10 ng/ml of Recombinant Human TGF-β2 (Wako, 200-19911) and rapamycin was added to culture the cells for 24 hours. […]
# as §2
substance,measurement,setting,value
"mTOR siRNA: siRNA against mTOR gene (Ambion, AS026M0L); sense strand SEQ ID NO: 1, antisense strand SEQ ID NO: 2 (sense CAUUCGCAUUCAGUCCAUATT; antisense UAUGGACUGAAUGCGAAUGAT; chemistry not given here)","activated form of cleaved caspase-3 (about 17 kDa), western blot",cleaved caspase 3,hardly observed
same,"phosphorylation of S6K at protein level, western blot",S6K,suppressed

# — patent publication US11433090B2, “mTOR-inhibitor-containing medicine for treating or preventing ophthalmic symptoms, disorders, or diseases, and application thereof” (The Doshisha, priority 2017, dated 2022)
